Read-outs that look alike come from different tables or passages of the source.
How the values were obtained:
[1] = biological target: T1, DCAF15-RBM39 ternary complex (Homo sapiens, UniProt Q14498+Q66K64); test: Compound-induced DCAF15-RBM39 ternary complex formation, AlphaLISA; type: biochemical; details: AlphaLISA, His-tagged DCAF15 complex and biotin-carrying RBM39; read-out: Ternary-RBM39 (RRM2) EC50
T1 construct: (RRM2)
Method in brief: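 Protein mixture incubated with compounds for one hour at room temperature; AlphaLISA beads then added sequentially, 1-2 h at room temperature after each. No-compound wells served as negative controls; His-tagged biotinylated GST tracked assay performance.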

RBM39 = biological target: T2, RBM39 (Homo sapiens, UniProt Q14498+Q66K64); test: Western blot assay for degradation of RBM39 in HCT116 cells; type: cell-based; details: HCT116, 4 h
T2 construct: endogenous in cells; host or cells: HCT116
Experimental: Example 107: Western Blot Assay Procedure for Assessing Degradation of RBM39 in HCT116 Cells
HCT116 cells were used with passage numbers ranging from 13 to 25. Cells were seeded in 12-well plated at a density of 1 million cells per well in 1 mL cell culture medium containing McCoy's 5A medium (Cat. #16600082, ThermoFisher, Waltham, MA), 10% Fetal Bovine Serum (Cat. #26140, ThermoFisher, Waltham, MA) and 1% Pen-Strep (Cat. #. 15070063, ThermoFisher, Waltham, MA) and incubated overnight. The next morning, compounds were serially diluted (1:3, 9 points) in the medium separately and were prepared 2× the final assay concentration. Subsequently, 1.0 mL medium containing DMSO or the appropriate concentration of each compound was added to respective wells. The final DMSO concentration in each well was 0.1%. […] Cells were then washed once with 1 mL of ice cold Dulbecco's phosphate-buffered saline (Cat. #28374, ThermoFisher, Waltham, MA) and then lysed with 100 μl of lysis buffer containing 1× RIPA (Cat. #. 89900, ThermoFisher, Waltham, MA) and HALT protease and phosphatase inhibitor (Cat. #78442, ThermoFisher, Waltham, MA) on ice for 10 minutes with intermittent rocking. Lysates were then sonicated in a sonication bath (3 pulses of 10 sec each with 1 min incubation on ice between each pulse). Samples were then centrifuged for 20 min at 14,000 rpm for 20 min. Supernatants were then transferred to fresh microfuge tubes and stored frozen at −80° C. until use. Total protein quantitation in lysate samples was done using the BCA protein quantitation kit following the manufacturer's instructions. For polyacrylamide gel electrophoresis, each sample ([…] total protein), was diluted with Laemmli sample buffer (Cat. #. 1610747, BioRad, Hercules, CA) by adding 9 ul of lysate to 3 ul of sample buffer containing 10% β-mercaptoethanol. Samples were then denatured at 95° C. for 5 minutes in a heat block, centrifuged at 14,000 rpm for 5 min, and placed on ice. Subsequently, 12 ul of each sample was loaded on 4-20% Tris/Glycine gels and electrophoresed in 1×Tris/Glycine SDS buffer at 80 (constant) volts for 2 h. Resolved samples were then transferred from gels to PVDF membrane using the BioRad Turbo-transfer unit with the Turbo default program (Cat. #. 1704150EDU, BioRad, Hercules, CA). For immunoblotting, membranes were first blocked for 1 hour at room temperature using Odyssey Blocking Buffer (Cat. #: 927-60001, Li-cor, Lincoln, NE) with continuous rocking. Membrane was then incubated with primary antibodies, anti-RBM39 (Sigma Cat. #: HPA001591, St. Louis, MO) and anti-β-actin (Cell Signaling Cat. #3700S, Danvers, MA), diluted 1000 fold each, at 4° C. for overnight. Subsequently, membrane was washed three times for at room temperature with continuous rocking (5 minutes each wash) using TBS buffer containing 0.1% Tween-20. After the final wash, secondary antibodies, IRDye 680 RD Goat anti Mouse IgG H+L (Cat. #: 926-68070, Li-cor, Lincoln, NE), and IRDye 800CW Goat anti Rabbit IgG H+L (Cat. #: 926-32211, Li-cor, Lincoln, NE), each diluted 10,000-fold, were added to the membranes and incubated at room temperature for 1 h with continuous rocking. Membranes were then washed 3 times with 1×TBS and scanned using Odessey CLx imaging system (Li-cor, Lincoln, NE) using default settings. Band intensity in images was quantified using the Image Studio Lite software (Version 5.2). Signal intensity for RBM-39 specific bands were normalized using the signal intensity for β-actin-specific band, and percent degradation was assessed by comparing RBM39 signal in compound-treated vs. DMSO-treated samples.

HCT116 cells = test: HCT116 cell viability using CellTiter-Glo; type: cell-based; details: read-out: 3-Day CTG IC50 in HCT116
Experimental: Example 108: Measurement of HCT116 Cell Viability Using CellTiter-Glo
HCT116 cells with the passage number ranging from 13 to 25 were plated in an opaque-walled 384 well plate (Corning, Cat. #3765, Corning, NY) at a density of 1000 cells/well in 50 μl medium containing McCoy's 5A medium (Cat. #16600082, ThermoFisher, Waltham, MA), 10% Fetal Bovine Serum (Cat. #26140, ThermoFisher, Waltham, MA) and 1% Pen-Strep (Cat. #. 15070063, ThermoFisher, Waltham, MA). After overnight incubation, cells were treated with various concentrations of compounds (0-10 μM) in DMSO (final concentration of 0.2% DMSO) for 72 h. CellTiter-Glo® Reagent (Cat. #G7573, Promega, Waltham, MA) was then added to all wells. The plates were placed on an orbital shaker to mix the content and induce cell lysis. The plates were then incubated at room temperature for 10 minutes to stabilize luminescent signal. The luminescence was recorded using Envision multilabel plate reader (Perkin-Elmers, Waltham, MA) and the data was fit by using Excel-fit (Microsoft, Redmond, WA).

DCAF15 = DCAF15 (Homo sapiens, UniProt Q66K64); test: Binary interaction between compounds and DCAF15, HTRF competition assay; type: binding; details: HTRF competition with Alexa Fluor 647 tracer, His-tagged DCAF15 complex; read-out: DCAF15 IC50
Sequence of DCAF15 (Q66K64 whole entry): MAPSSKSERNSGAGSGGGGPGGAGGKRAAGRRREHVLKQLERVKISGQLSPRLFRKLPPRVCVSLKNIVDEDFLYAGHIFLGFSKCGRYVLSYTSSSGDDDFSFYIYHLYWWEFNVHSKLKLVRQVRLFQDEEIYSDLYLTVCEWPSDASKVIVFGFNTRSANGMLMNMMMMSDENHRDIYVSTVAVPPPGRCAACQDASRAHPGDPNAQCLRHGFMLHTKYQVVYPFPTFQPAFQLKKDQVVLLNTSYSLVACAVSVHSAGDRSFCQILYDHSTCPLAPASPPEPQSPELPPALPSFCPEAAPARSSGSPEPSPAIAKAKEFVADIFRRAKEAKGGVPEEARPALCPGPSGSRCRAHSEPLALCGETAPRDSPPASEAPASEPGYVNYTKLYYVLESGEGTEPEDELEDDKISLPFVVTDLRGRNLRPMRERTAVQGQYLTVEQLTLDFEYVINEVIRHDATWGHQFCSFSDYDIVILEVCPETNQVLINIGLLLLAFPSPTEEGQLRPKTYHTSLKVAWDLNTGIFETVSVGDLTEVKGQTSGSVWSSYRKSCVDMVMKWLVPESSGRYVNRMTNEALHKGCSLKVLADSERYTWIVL
Sequence of DCAF15 (Q16531 whole entry partner): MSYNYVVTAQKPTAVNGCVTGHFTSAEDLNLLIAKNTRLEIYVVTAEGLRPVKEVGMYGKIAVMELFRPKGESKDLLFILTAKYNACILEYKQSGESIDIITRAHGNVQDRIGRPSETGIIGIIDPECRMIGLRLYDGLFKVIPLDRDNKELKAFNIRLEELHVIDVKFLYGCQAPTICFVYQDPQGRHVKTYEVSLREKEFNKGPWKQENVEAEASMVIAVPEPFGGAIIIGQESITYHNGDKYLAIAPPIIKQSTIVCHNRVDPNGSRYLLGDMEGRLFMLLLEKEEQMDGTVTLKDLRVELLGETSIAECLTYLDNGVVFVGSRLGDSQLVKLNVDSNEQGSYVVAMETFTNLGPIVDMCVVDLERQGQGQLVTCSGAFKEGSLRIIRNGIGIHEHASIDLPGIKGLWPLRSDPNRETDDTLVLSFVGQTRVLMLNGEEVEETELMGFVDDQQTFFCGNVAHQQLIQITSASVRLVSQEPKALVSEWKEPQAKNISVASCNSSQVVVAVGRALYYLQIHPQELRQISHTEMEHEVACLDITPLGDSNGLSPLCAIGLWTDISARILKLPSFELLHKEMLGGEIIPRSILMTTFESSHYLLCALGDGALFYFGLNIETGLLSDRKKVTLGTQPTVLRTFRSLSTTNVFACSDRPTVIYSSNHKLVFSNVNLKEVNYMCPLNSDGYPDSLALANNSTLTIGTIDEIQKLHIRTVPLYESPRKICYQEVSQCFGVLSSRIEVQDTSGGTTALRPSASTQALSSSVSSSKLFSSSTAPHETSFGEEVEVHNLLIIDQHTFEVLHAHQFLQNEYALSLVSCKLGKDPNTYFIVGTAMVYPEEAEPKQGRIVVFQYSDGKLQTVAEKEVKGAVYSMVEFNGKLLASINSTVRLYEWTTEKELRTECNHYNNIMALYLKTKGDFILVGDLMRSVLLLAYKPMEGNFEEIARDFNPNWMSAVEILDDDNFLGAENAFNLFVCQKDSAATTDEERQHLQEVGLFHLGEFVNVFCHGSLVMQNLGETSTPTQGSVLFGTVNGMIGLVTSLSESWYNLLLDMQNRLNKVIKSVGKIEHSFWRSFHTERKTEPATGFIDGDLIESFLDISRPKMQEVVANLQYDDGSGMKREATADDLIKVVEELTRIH
Method in brief: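 HTRF competition format: DCAF15 premixed 15 min at room temperature with anti-6His-Eu cryptate antibody, then combined with tracer and compound. Binding derived from ratiometric signal with titration curves; no-DCAF15 wells as controls.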

[2] = Homo sapiens, HCT-116, HCT116, 72 h

T1 sequence (Q66K64 whole entry): as the sequence (Q66K64 whole entry) above
T1 sequence (Q14498 250-328 limits assumed): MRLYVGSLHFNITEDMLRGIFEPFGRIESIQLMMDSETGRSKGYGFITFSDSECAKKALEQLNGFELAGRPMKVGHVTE
T1 sequence (Q16531 whole entry partner): as the sequence (Q16531 whole entry partner) above

Row | SMILES | EC50 [1] [nM] | DC50 (RBM39) [nM] | IC50 (HCT116 cells; HCT116, 72 h) [nM] | IC50 (HCT116 cells; [2]) [nM] | IC50 (DCAF15) [nM]
1 | Nc1ccc(S(=O)(=O)Nc2cnc3c(Cl)cccc3n2)cc1 [CQS, cloroquinoxaline sulfonamide, reference compound] | < 5000 | < 100 | < 5000 |  | 
2 | NCCCCCCCNS(=O)(=O)c1ccc(S(=O)(=O)Nc2ccc(Cl)c3c(Cl)c[nH]c23)cc1 [Compound 8, N^1-(7-aminoheptyl)-N^4-(3,4-dichloro-1H-indol-7-yl)benzene-1,4-disulfonamide] | < 1000 | < 1000 |  |  | 
3 | O=S(=O)(Nc1ccc(Cl)c2c(Cl)c[nH]c12)c1ccc(S(=O)(=O)N2CCNCC2)cc1 [Compound 42, N-(3,4-dichloro-1H-indol-7-yl)-4-(piperazin-1-ylsulfonyl)benzenesulfonamide] | < 1000 | < 1000 |  | < 100 | 

Second part, the compound after the results:

Row | EC50 [1] [nM] | DC50 (RBM39) [nM] | IC50 (HCT116 cells; HCT116, 72 h) [nM] | IC50 (HCT116 cells; [2]) [nM] | IC50 (DCAF15) [nM] | SMILES
4 | < 1000 | < 1000 |  | < 1000 | < 100000 | COC(=O)CNS(=O)(=O)c1ccc(S(=O)(=O)Nc2ccc(Cl)c3c(Cl)c[nH]c23)cc1 [Compound 1, methyl ((4-(N-(3,4-dichloro-1H-indol-7-yl)sulfamoyl)phenyl)sulfonyl) glycinate]
5 | < 1000 | < 100 |  |  | < 20000 | Cc1ccc(NS(=O)(=O)c2cccc(-n3ccnn3)c2)c2[nH]cc(C#N)c12 [Compound 96, N-(3-cyano-4-methyl-1H-indol-7-yl)-3-(1H-1,2,3-triazol-1-yl)benzenesulfonamide]
6 | < 1000 | < 100 |  |  |  | Cc1ccc(NS(=O)(=O)c2ccc(-n3ccnn3)cc2)c2[nH]cc(C#N)c12 [Compound 95, N-(3-cyano-4-methyl-1H-indol-7-yl)-4-(1H-1,2,3-triazol-1-yl)benzenesulfonamide]

Reference: patent publication US20240190821A1, “SULFONAMIDE SUBSTITUTED N-(1H-INDOL-7-YL)BENZENESULFONAMIDES AND USES THEREOF” (Triana Biomedicines, Inc., priority 2021, published 2024)
